According to the CheMixHub drug solubility set:

Assay: xn = mol fraction of the nth substance listed, in the solute-free solvent

NC(N)=C([N+](=O)[O-])[N+](=O)[O-] + CS(C)=O + CCC(C)=O
solubility (g/100 g solution)
Conditions	293.15 K	298.15 K	303.15 K	308.15 K	313.15 K	318.15 K	323.15 K	328.15 K	333.15 K
x2 = 0.1228	2.96	3.02	3.23	3.43	3.66	3.88	4.15	4.41	4.69
x2 = 0.2395	6.6	7.02	7.36	7.71	8.11	8.5	8.9	9.32	9.81
x2 = 0.3506	10.8	11.4	11.7	12.2	12.7	13.1	13.6	14.2	14.8
x2 = 0.4565	14.7	15.3	15.7	16.2	16.7	17.2	17.8	18.4	19
x2 = 0.5575	18.4	19.1	19.6	20	20.6	21.1	21.7	22.4	23
x2 = 0.6539	21.6	22.1	22.7	23.2	23.8	24.4	25	25.6	26.4
x2 = 0.7462	24.1	24.8	25.3	25.7	26.3	26.9	27.5	28.1	28.8
x2 = 0.8344	26.2	26.7	27.2	27.7	28.2	28.8	29.4	30	30.7
x2 = 0.9189	27.9	28.7	29.2	29.6	30.1	30.6	31.2	31.9	32.5

CC1=NNC(=O)N(N=Cc2cccnc2)C1 + CN1CCCC1=O + CC(C)O
solubility (g/100 g solution)
Conditions	278.15 K	283.15 K	288.15 K	293.15 K	298.15 K	303.15 K	308.15 K	313.15 K	318.15 K
x2 = 0.1316	0.161	0.188	0.221	0.258	0.3	0.347	0.402	0.461	0.529
x2 = 0.2878	0.235	0.273	0.319	0.37	0.429	0.494	0.57	0.652	0.746
x2 = 0.4763	0.292	0.339	0.395	0.457	0.529	0.608	0.701	0.801	0.914
x2 = 0.708	0.333	0.386	0.449	0.519	0.601	0.689	0.794	0.906	1.03

Nc1ncc(Br)nc1Br + OCCO + O
solubility (g/100 g solution)
Conditions	278.15 K	283.15 K	288.15 K	293.15 K	298.15 K	303.15 K	308.15 K	313.15 K	318.15 K	323.15 K
x2 = 0.03125	0.00637	0.0078	0.00922	0.0109	0.0127	0.0144	0.0164	0.0186	0.0208	0.0231
x2 = 0.06767	0.0106	0.0129	0.0152	0.018	0.0209	0.0235	0.0267	0.0302	0.0336	0.0373
x2 = 0.1107	0.0164	0.02	0.0235	0.0276	0.032	0.036	0.0408	0.0459	0.0511	0.0566
x2 = 0.1622	0.0238	0.0288	0.0338	0.0398	0.046	0.0518	0.0585	0.0657	0.0731	0.0809
x2 = 0.225	0.0307	0.0375	0.0446	0.0526	0.0606	0.0684	0.0774	0.0866	0.0965	0.108
x2 = 0.3034	0.0394	0.0471	0.0562	0.0663	0.0766	0.0874	0.0983	0.111	0.124	0.138
x2 = 0.4038	0.0467	0.0558	0.0667	0.0788	0.0911	0.104	0.118	0.133	0.148	0.164
x2 = 0.5373	0.0508	0.0614	0.0739	0.0875	0.103	0.116	0.132	0.148	0.165	0.184
x2 = 0.7232	0.0528	0.0647	0.077	0.0912	0.106	0.12	0.137	0.154	0.173	0.194

O=C1C=CC(=O)N1c1ccccc1Br + CCO + O
solubility (g/100 g solution)
Conditions	278.15 K	283.15 K	288.15 K	293.15 K	298.15 K	303.15 K	308.15 K	313.15 K	318.15 K	323.15 K
x2 = 0.04165	0.529	0.674	0.862	1.08	1.34	1.67	2.03	2.48	2.98	3.59
x2 = 0.08908	0.965	1.24	1.54	1.93	2.39	2.94	3.58	4.39	5.22	6.22
x2 = 0.1436	1.66	2.09	2.65	3.22	3.94	4.8	5.87	6.98	8.31	9.86
x2 = 0.2068	2.5	3.13	3.83	4.75	5.68	6.85	8.18	9.81	11.5	13.3
x2 = 0.2812	3.54	4.34	5.21	6.34	7.51	9.04	10.5	12.3	14.3	16.5
x2 = 0.3698	4.32	5.25	6.3	7.63	8.97	10.7	12.4	14.4	16.6	18.8
x2 = 0.4772	4.85	5.92	7.08	8.5	10	11.8	13.7	15.7	18.1	20.8
x2 = 0.6101	5.33	6.52	7.78	9.33	11	12.9	15.1	17.4	19.9	22.6
x2 = 0.7788	5.65	6.85	8.21	9.83	11.7	13.6	15.8	18.6	20.8	23.7

NC(N)=C([N+](=O)[O-])[N+](=O)[O-] + CS(C)=O + O=C1CCCC1
solubility (g/100 g solution)
Conditions	293.15 K	298.15 K	303.15 K	308.15 K	313.15 K	318.15 K	323.15 K	328.15 K	333.15 K
x2 = 0.1177	3.67	3.8	4.06	4.31	4.57	4.86	5.16	5.5	5.84
x2 = 0.2308	7.45	7.83	8.19	8.56	8.97	9.37	9.83	10.2	10.7
x2 = 0.3397	11.5	12.1	12.6	13	13.5	14	14.5	15	15.6
x2 = 0.4445	15.2	15.8	16.2	16.6	17.1	17.6	18.3	18.9	19.5
x2 = 0.5455	18.5	19.2	19.7	20.1	20.6	21.1	21.7	22.3	22.9
x2 = 0.6429	21.3	21.9	22.4	22.9	23.4	24	24.6	25.1	25.8
x2 = 0.7369	23.8	24.6	25	25.5	26.1	26.6	27.2	27.8	28.5
x2 = 0.8276	26	26.5	27	27.4	28.1	28.6	29.2	29.8	30.4
x2 = 0.9153	27.7	28.5	29	29.4	30	30.5	31.1	31.8	32.4

Nc1cccc2c1CN(C1CCC(=O)NC1=O)C2=O (centres undefined) + CC#N + CC(C)O
solubility (g/100 g solution)
Conditions	273.15 K	278.15 K	283.15 K	288.15 K	293.15 K	298.15 K	303.15 K	308.15 K	313.15 K	318.15 K
x2 = 0.2679	0.218	0.231	0.251	0.274	0.304	0.339	0.373	0.411	0.451	0.494
x2 = 0.4939	0.278	0.304	0.339	0.374	0.415	0.459	0.511	0.569	0.627	0.694
x2 = 0.6871	0.349	0.383	0.42	0.463	0.503	0.55	0.602	0.666	0.732	0.802
x2 = 0.8541	0.363	0.393	0.428	0.464	0.506	0.552	0.609	0.666	0.744	0.82

CC(C)C(=O)Nc1ccc([N+](=O)[O-])c(C(F)(F)F)c1 + C1COCCO1 + O
solubility (g/100 g solution)
Conditions	283.15 K	288.15 K	293.15 K	298.15 K	303.15 K	308.15 K	313.15 K	318.15 K	323.15 K
x2 = 0.02222	0.00748	0.00971	0.0126	0.0163	0.0208	0.0262	0.033	0.0406	0.0498
x2 = 0.04865	0.0654	0.0845	0.108	0.135	0.17	0.212	0.26	0.316	0.382
x2 = 0.0806	0.391	0.472	0.574	0.691	0.832	0.993	1.17	1.38	1.63
x2 = 0.12	1.34	1.61	1.89	2.2	2.56	2.98	3.46	3.97	4.55
x2 = 0.1698	3.72	4.33	5.02	5.81	6.62	7.58	8.62	9.74	11
x2 = 0.2348	7.42	8.68	9.98	11.4	13	14.8	16.6	18.7	20.9
x2 = 0.3231	12.2	14.1	16.3	18.5	20.8	23.4	26.1	28.9	31.9
x2 = 0.45	18.1	20.6	23.5	26.6	29.8	33.3	36.7	40.4	44.1
x2 = 0.648	24.9	28	31.2	34.6	38.2	41.8	45.6	49.4	53.2
